pIC50: −log10 of the molar value. Where two headings read alike, the source gives them in different places.
How the values were obtained:
[1] = test system: phosphorylation of Retinoblastoma Protein (pRb Ser807/811 or Ser780) in T47D cells; experiment: Inhibition of phosphorylation of retinoblastoma protein (pRb) in T47D cell (ELISA); format: cell-based, human; conditions: Homo sapiens, T47D, read-out: Phospho T47D Ser807 IC50, pRb Ser807 phosphorylation, T47D cells
Method in brief: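 T47D cells in RPMI 1640 + 10% FBS, adhered overnight, then treated 24 h with 3-fold compound titrations (top concentration […]). Lysates assayed by sandwich ELISA for pRb Ser807/811 or Ser780 with HRP/TMB detection. IC50 from 4-parameter sigmoidal fit.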

CDK4/CyclinD1 = molecular target: T1, CDK4/CyclinD1 (Homo sapiens, UniProt P11802); experiment: Assay for inhibition of CDK4/CyclinD1 (Caliper microfluidic kinase assay); format: biochemical
T1 construct: purchased Thermofisher PR8064A
Method in brief: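 IC50 was obtained by 4-parameter sigmoidal fitting after 1 nM CDK4/CyclinD1, 200 μM ATP and 1 μM FL-34 substrate reacted for 3 h at room temperature (pH 7.5 HEPES, 10 mM MgCl2). After EDTA quench, substrate and product were separated and detected on a Caliper microfluidic chip.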

CDK2/CyclinE1 = molecular target: T2, CDK2/CyclinE1 (Homo sapiens, UniProt P24941); experiment: Assay for inhibition of CDK2/CyclinE1 (Caliper microfluidic kinase assay); format: biochemical; conditions: read-out: CDK2 IC50
T2 construct: purchased SignalChem C29-18G
Method in brief: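 IC50 came from 4-parameter fits of substrate-to-product conversion, separated on a Caliper chip after an EDTA stop. Reactions ran 3 hours at room temperature with 100 μM ATP, 5 μM fluorescent FL-18 peptide and 5 nM enzyme in 100 mM HEPES pH 7.5, 10 mM MgCl2.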

T47D breast cancer cells = experiment: Anti-proliferation assay in T47D cell (Cyquant, day 6); format: cell-based, human; conditions: Homo sapiens, T47D, anti-proliferation, T47D cells; read-out: T47D IC50
Method in brief: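 A ten-point, 3-fold compound series (10 μM down to 0.51 nM) was applied to overnight-settled cells in 10% FBS RPMI 1640, and DNA content was read by CyQuant fluorescence 6 days later. An untreated plate read before dosing served as baseline for subtraction before IC50 fitting.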

CDK6/CyclinD3 = molecular target: T3, CDK6/CyclinD3 (Homo sapiens, UniProt Q00534); experiment: Assay for inhibition of CDK6/CyclinD3 (Caliper microfluidic kinase assay); format: biochemical
T3 construct: purchased Carna 04-107
Method in brief: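 IC50s came from four-parameter dose-response fits of microfluidic substrate/product separation data. Reactions held 2 nM CDK6/CyclinD3, 300 μM ATP and 1 μM 5-FAM peptide FL-34 in pH 7.5 HEPES/MgCl2 buffer, ran 3 hours at room temperature, then were quenched with EDTA.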

T1 sequence (P11802 whole entry): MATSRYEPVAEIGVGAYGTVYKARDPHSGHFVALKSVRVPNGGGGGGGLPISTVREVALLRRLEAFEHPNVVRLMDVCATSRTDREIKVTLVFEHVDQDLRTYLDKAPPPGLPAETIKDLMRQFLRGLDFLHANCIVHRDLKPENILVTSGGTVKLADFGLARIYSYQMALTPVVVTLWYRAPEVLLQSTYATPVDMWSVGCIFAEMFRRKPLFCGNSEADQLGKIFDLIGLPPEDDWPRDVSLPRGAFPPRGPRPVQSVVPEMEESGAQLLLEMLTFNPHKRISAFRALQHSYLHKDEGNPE
T1 sequence (P24385 whole entry partner): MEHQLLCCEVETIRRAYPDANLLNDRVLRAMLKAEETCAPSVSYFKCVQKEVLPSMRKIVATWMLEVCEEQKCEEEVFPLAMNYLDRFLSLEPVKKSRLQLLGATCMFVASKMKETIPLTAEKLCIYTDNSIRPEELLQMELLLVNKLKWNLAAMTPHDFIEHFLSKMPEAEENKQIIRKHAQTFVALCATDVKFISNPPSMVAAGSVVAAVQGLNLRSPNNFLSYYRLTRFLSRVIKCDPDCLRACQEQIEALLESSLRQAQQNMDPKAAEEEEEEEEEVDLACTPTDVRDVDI
T3 sequence (Q00534 whole entry): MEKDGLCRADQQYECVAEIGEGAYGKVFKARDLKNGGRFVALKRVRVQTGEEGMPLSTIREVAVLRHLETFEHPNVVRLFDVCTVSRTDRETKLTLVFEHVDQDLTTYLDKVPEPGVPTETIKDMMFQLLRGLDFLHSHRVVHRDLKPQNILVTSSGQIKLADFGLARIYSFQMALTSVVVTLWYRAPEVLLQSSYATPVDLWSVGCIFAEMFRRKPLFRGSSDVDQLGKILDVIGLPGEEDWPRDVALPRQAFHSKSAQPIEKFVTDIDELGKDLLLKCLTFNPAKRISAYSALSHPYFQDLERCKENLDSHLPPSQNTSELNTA
T3 sequence (P30281 whole entry partner): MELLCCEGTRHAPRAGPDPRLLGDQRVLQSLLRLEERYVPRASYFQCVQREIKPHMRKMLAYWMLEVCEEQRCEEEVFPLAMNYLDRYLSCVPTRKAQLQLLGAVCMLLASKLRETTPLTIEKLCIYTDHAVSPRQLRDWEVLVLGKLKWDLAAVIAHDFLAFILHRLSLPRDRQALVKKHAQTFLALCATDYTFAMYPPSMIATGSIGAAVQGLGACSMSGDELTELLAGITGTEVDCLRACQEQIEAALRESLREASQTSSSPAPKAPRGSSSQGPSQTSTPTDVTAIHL

Compound | pIC50 [1] | pIC50 (CDK4/CyclinD1; CDK4/CyclinD1) | pIC50 (CDK2/CyclinE1; CDK2/CyclinE1) | pIC50 (T47D breast cancer cells) | pIC50 (CDK6/CyclinD3; CDK6/CyclinD3) | pIC50 (CDK4/CyclinD1; CDK4/CyclinD1, 200 μM ATP) | pIC50 (CDK2/CyclinE1; CDK2/CyclinE1, 100 μM ATP) | pIC50 (CDK6/CyclinD3; CDK6/CyclinD3, 300 μM ATP)
COc1nc(-c2ccnc(Nc3ccc(C(=O)N4CCC(NC5CC5)C4)cc3)n2)cc2c1ncn2C(C)C (stereo not drawn) [compound 80] | > 7.00 | > 8.00 | > 8.00 | 6.30 to 7.00 | 7.00 to 8.00 | – | – | –
COc1nc(-c2nc(Nc3ccc(N4CCOCC4=O)cn3)ncc2Cl)cc2c1nc(C)n2C(C)C [compound 83] | > 7.00 | > 8.00 | 6.00 to 7.00 | > 7.00 | > 8.00 | – | – | –
COc1nc(-c2ccnc(Nc3ccc(N4CCC(N(C)C)CC4=O)cn3)n2)cc2c1ncn2C(C)C (stereo not drawn) [compound 91] | > 7.00 | > 8.00 | 6.00 to 7.00 | > 7.00 | > 8.00 | – | – | –
COc1nc(-c2nc(Nc3ccc(N4CCCCC4=O)cn3)ncc2F)cc2c1nc(C)n2C(C)C [compound 93] | 6.30 to 7.00 | > 8.00 | < 6.00 | 6.30 to 7.00 | 7.00 to 8.00 | – | – | –
COc1nc(-c2nc(Nc3ccc(N4CCC(N(C)C)CC4)cn3)ncc2F)cc2c1nc(C)n2C(C)C [compound 94] | 6.30 to 7.00 | > 8.00 | < 6.00 | > 7.00 | 7.00 to 8.00 | – | – | –
COc1nc(-c2nc(Nc3ccc(N4CCOCC4=O)cn3)ncc2F)cc2c1nc(C)n2C(C)C [compound 98] | > 7.00 | > 8.00 | < 6.00 | > 7.00 | 7.00 to 8.00 | – | – | –
COc1nc(-c2ccnc(Nc3ccc(N4CCC(N5CC(F)C5)CC4=O)cn3)n2)cc2c1ncn2C(C)C (stereo not drawn) [compound 99] | > 7.00 | > 8.00 | 6.00 to 7.00 | > 7.00 | 7.00 to 8.00 | – | – | –
COc1nc(-c2nc(Nc3ccc(N4CCN(C)CC4)cn3)ncc2F)cc2c1nc(C)n2C(C)C [compound 103] | > 7.00 | 7.00 to 8.00 | < 6.00 | 6.30 to 7.00 | 7.00 to 8.00 | – | – | –
COc1nc(-c2ccnc(Nc3ccc(N4CC5CC4CN5)cn3)n2)cc2c1ncn2C(C)C (stereo not drawn) [compound 109] | > 7.00 | – | – | > 7.00 | – | > 8.00 | < 6.00 | 7.00 to 8.00
COc1nc(-c2nc(Nc3ccc(N4CCNCC4=O)cc3F)ncc2F)cc2c1ncn2C(C)C [compound 111] | 6.30 to 7.00 | – | – | 6.30 to 7.00 | – | > 8.00 | 7.00 to 8.00 | 7.00 to 8.00
COc1nc(-c2nc(Nc3ccc(N4CCNCCC4=O)cn3)ncc2F)cc2c1nc(C)n2C(C)C [compound 112] | 6.30 to 7.00 | – | – | > 7.00 | – | > 8.00 | < 6.00 | 7.00 to 8.00
COc1nc(-c2nc(Nc3ccc(N4CCCNCC4=O)cn3)ncc2F)cc2c1nc(C)n2C(C)C [compound 113] | 6.30 to 7.00 | – | – | 6.30 to 7.00 | – | > 8.00 | 6.00 to 7.00 | 7.00 to 8.00
COc1nc(-c2nc(Nc3ccc(N4CCNCC4=O)c(F)c3)ncc2F)cc2c1ncn2C(C)C [compound 115] | 6.30 to 7.00 | – | – | 6.30 to 7.00 | – | > 8.00 | 7.00 to 8.00 | 7.00 to 8.00
COc1nc(-c2ccnc(Nc3ccc(N4CCNCC4=O)c(F)c3)n2)cc2c1ncn2C(C)C [compound 116] | > 7.00 | – | – | 6.30 to 7.00 | – | > 8.00 | 7.00 to 8.00 | 7.00 to 8.00
COc1nc(-c2ccnc(Nc3ccc(N4CCC(C)(N)C4)cn3)n2)cc2c1ncn2C(C)C (stereo not drawn) [compound 117] | 6.30 to 7.00 | – | – | 6.30 to 7.00 | – | 7.00 to 8.00 | < 6.00 | 7.00 to 8.00
COc1nc(-c2ccnc(Nc3ccc(N4CCC(C)(N)CC4)cn3)n2)cc2c1ncn2C(C)C [compound 118] | > 7.00 | – | – | 6.30 to 7.00 | – | > 8.00 | < 6.00 | 7.00 to 8.00
COc1nc(-c2ccnc(Nc3ccc(N4CCN(CCF)CC4=O)cn3)n2)cc2c1ncn2C(C)C [compound 122] | > 7.00 | – | – | > 7.00 | – | > 8.00 | 6.00 to 7.00 | 7.00 to 8.00
COc1nc(-c2ccnc(Nc3ccc(N4CCN(CCF)CC4)cn3)n2)cc2c1ncn2C(C)C [compound 123] | 6.30 to 7.00 | – | – | 6.30 to 7.00 | – | > 8.00 | < 6.00 | 7.00 to 8.00
COc1nc(-c2nc(Nc3ccc(N4CCN(CCF)CC4=O)cn3)ncc2F)cc2c1ncn2C(C)C [compound 126] | 6.30 to 7.00 | – | – | 6.30 to 7.00 | – | > 8.00 | 6.00 to 7.00 | 7.00 to 8.00
COc1nc(-c2nc(Nc3ccc(N4CCN(C5COC5)CC4=O)cn3)ncc2F)cc2c1ncn2C(C)C [compound 129] | > 7.00 | – | – | 6.30 to 7.00 | – | > 8.00 | < 6.00 | 7.00 to 8.00
COc1nc(-c2nc(Nc3ccc(N4CCN(C5COC5)CC4=O)cn3)ncc2F)cc2c1nc(C)n2C(C)C [compound 131] | 6.30 to 7.00 | – | – | 6.30 to 7.00 | – | > 8.00 | < 6.00 | 7.00 to 8.00
CCN1CCN(c2ccc(Nc3ncc(F)c(-c4cc5c(ncn5C(C)C)c(OC)n4)n3)nc2)C(=O)C1 [compound 132] | > 7.00 | – | – | 6.30 to 7.00 | – | > 8.00 | < 6.00 | 7.00 to 8.00
CC(C)c1cnn2ccc(-c3ccnc(Nc4ccc(N5CC(N(C)C)CCC5=O)cn4)n3)cc12 (stereo not drawn) [compound 156] | > 7.00 | – | – | 6.30 to 7.00 | – | 7.00 to 8.00 | 7.00 to 8.00 | 6.00 to 7.00
CC(C)c1cnn2ccc(-c3ccnc(Nc4ccc(N5CCCC(N(C)C)C5=O)cn4)n3)cc12 (stereo not drawn) [compound 157] | > 7.00 | – | – | > 7.00 | – | > 8.00 | 6.00 to 7.00 | 7.00 to 8.00
CC(C)c1cnn2ccc(-c3nc(Nc4ccc(N5CCC(N6CC(F)(F)C6)CC5=O)cn4)ncc3F)cc12 (stereo not drawn) [compound 158] | > 7.00 | – | – | > 7.00 | – | > 8.00 | 7.00 to 8.00 | 7.00 to 8.00
CC(C)c1cnn2ccc(-c3nc(Nc4ccc(N5CCC(NC6CC(F)(F)C6)CC5=O)cn4)ncc3F)cc12 (stereo not drawn) [compound 159] | > 7.00 | – | – | > 7.00 | – | > 8.00 | 7.00 to 8.00 | 7.00 to 8.00
CC(C)c1cnn2ccc(-c3ccnc(Nc4ccc(N5CCC(N6CC(F)C6)CC5=O)cn4)n3)cc12 (stereo not drawn) [compound 162] | > 7.00 | – | – | > 7.00 | – | > 8.00 | 7.00 to 8.00 | 7.00 to 8.00
